Reference: patent US4272541A, “7,8 and 7-8 Substituted 4,5α-epoxymorphinan-6-one compounds, and methods of treating pain and drug dependence with them” (Miles Laboratories, Inc., priority 1979, dated 1981)

Assays:
[1] = Telford et al. 1961; Yeh et al. 1976; cited from earlier work
[2] = tested on: Anti-Peristaltic Effects Of Morphine; assay: Charcoal meal test, antagonist test (ability to antagonize the anti-peristaltic effects of morphine); format: in vivo, mice (albino females, CFW strain); conditions: for Percent Reversal (S.E.) Of Anti-Peristaltic Effects Of Morphine: morphine 8 mg/kg, naloxone 10 mg/kg = 100%; for antagonist properties: in words, charcoal meal tests
Description: (§1) The agonist and antagonist effects of TR-5088, reference compound TR-5128 and prior art compound 17-cyclopropylmethyl-4,5α-epoxy-3-hydroxymorphinan-6-one (TR-5118) were determined in mice by a modified procedure of Rodriguez and Villarreal (report on the 36th Annual Scientific Meeting Committee on the Problems of Drug Dependance, Mar. 10-14, 1974, Mexico City, D.F.).
(§2) Subjects and Procedure for Measuring Gastrointestinal Peristaltic Activity. The mice used were albino females of the CFW strain, weighing between 20 and 25 grams; ten animals per dose were used for each compound tested in each experiment except 20 animals were used in the tests of Compound 5088. Gastrointestinal peristaltic activity was measured using a modification of the charcoal meal method described by Macht and Baba-Gose (1931). Mice were deprived of food 18 hours before the administration of the charcoal meal. […] This meal consisted of an aqueous suspension of 5% powdered tragacanth and 5% animal charcoal and was freshly made for each experiment. The charcoal meal was administered by gastric intubation, 0.25 ml per mouse. The animals were sacrificed by cervical dislocation. After the sacrifice, the whole gastrointestinal tract was rapidly removed and freed of epiploon. Then the entire length of intestine was hung upon a small hook at the level of the pylorus. In order to standardize the tension of the intestine, a 5 g weight was hung at the level of the ileocecal valve. Gastrointestinal peristaltic activity was then determined by measuring the distance the charcoal traveled from the pylorus.
(§3) Drugs. Morphine hydrochloride, naloxone hydrochloride or test compounds were each dissolved in distilled water with their concentrations adjusted so that the volume of injection was 10 ml/kg. Doses are expressed in terms of the salts.
Determination of Ability of Test Compounds to Antagonize the Anti-Peristaltic Effects of Morphine (Antagonist test).
Morphine (8 mg/kg) was given s.c. at time 0, charcoal meal was given p.o. at time 15 min, naloxone or test compound was given s.c. at 30 min, and the animals were sacrificed at time 45 min. Naloxone is the standard of reference and its maximum effect (at 10 mg/kg) to antagonize the antiperistaltic effects of morphine is assigned the value of 100%; test compounds are expressed as % of maximum naloxone antagonism.

[3] = tested on: morphine effect; assay: Narcotic antagonist activity, modified rat tail flick test; format: in vivo, rats (male albino Wistar); conditions: Rattus norvegicus, ip; rats, test drug i.p. 10 minutes before ED80 dose of morphine s.c.; Table I; read-out: AD50 (the source's name)
Description: (B) Narcotic antagonist activity in rats (modified rat tail flick test).
TEST B. EVALUATION OF NARCOTIC ANTAGONIST ACTIVITY
The narcotic antagonist effects of test compounds were determined by a modification of the rat tail flick procedure of Harris and Pierson (J. Pharmacol. Exp. Ther. 143,141 [1964]).
Male albino Wistar rats (100-120 g) were used for this study. A rat's tail is so placed so as to cover a photocell. Heat is applied by a lamp in a reflector with a timer being connected to the lamp and photocell so that the timer goes on when the light is turned on and is turned off when the photocell is uncovered. A rheostat, incorporated into a heating lamp is used to adjust the intensity of the light falling on the tail of the rat such that the rat's control reaction time is from two to four seconds. Animals with a control reaction time outside this range are rejected. The rheostat adjustment is made only if a significant proportion (more than 2 out of every 10 rats) of the reaction times are outside the range of two to four seconds. Groups of five rats were used each time, and two control times were determined at 60 and 30 minutes prior to subcutaneous injection of the drug.
Thirty minutes after the last control run the test drug was given intraperitoneally. This was followed ten minutes later by an ED80 dose of morphine subcutaneously. The animals were retested at 20 minutes after the morphine injection. Control animals were given vehicle and morphine only. The data were calculated as follows: [formula]
The data were plotted on log-probit paper and AD50 values, i.e., the dose required to inhibit the morphine effect by 50% within 95% confidence limits, were determined by the method of Litchfield and Wilcoxon.

[4] = tested on: writhing; assay: Acetic acid mouse writhing test (analgesic effects); format: in vivo, mice (male CD-1); conditions: for ED50: Mus musculus, sc, 0.25 h, mice, subcutaneous, acetic acid i.p. 15 minutes post drug, Table I, read-out: ED50
Description: (A) Analgesic effects upon mice (acetic acid writhing test).
TEST A. ACETIC ACID MOUSE WRITHING TEST
The analgesic effects of test compounds were determined in mice by use of the acetic acid writhing test described by B. J. R. Whittle, Brit. J. Pharmacol., 22:246 (1964). In this test at least three groups of five male CD-1 mice (18-22 g) each were given subcutaneous doses of the test drug dissolved in either distilled water or distilled water acidified with HCl depending on the solubility of the compound. In all cases, 0.4 milliliter of a 0.5% V/V acetic acid in distilled water solution was administered intraperitoneally 15 minutes post drug. The number of writhes in a 20 min. interval beginning 5 minutes after the acetic acid injection were determined and compared with the number of writhes in control groups which had received only acetic acid.
Percent inhibition of writhing was calculated as: [formula]
The ED50 dose, i.e., the dose required to reduce the number of writhes by 50%, was determined graphically from a plot of % inhibition as a probit versus log dose. Confidence limits of 95% were calculated on the basis of those results falling in the range 16-84% inhibition. See Litchfield, J. T. and Wilcoxon, F., J. Pharmacol. Exp. Ther., 96, 99-113, (1949).

[5] = tested on: Peristalsis; assay: Charcoal meal test, agonist test (ability of test compound to directly inhibit peristalsis); format: in vivo, mice (albino females, CFW strain); conditions: for inhibition at 0.01 mg/kg / inhibition at 0.1 mg/kg / inhibition at 1 mg/kg / inhibition at 10 mg/kg / inhibition at 100 mg/kg: Mus musculus, sc, morphine 8 mg/kg = 100%, read-out: Percent Inhibition of Peristalsis; for inhibition at 0.01 mg/kg: 0.01 mg/kg s.c.; for inhibition at 0.1 mg/kg: 0.1 mg/kg s.c.; for inhibition at 1 mg/kg: 1.0 mg/kg s.c.; for inhibition at 10 mg/kg: 10.0 mg/kg s.c.; for inhibition at 100 mg/kg: 100.0 mg/kg s.c.; for inhibition of peristalsis / constipating side effect: in words, analysis of variance, comparison of compounds
Description: as §1, §2, §3
Morphine (8 mg/kg), test compound, or saline control was administered subcutaneously (s.c.), at time 0, the charcoal meal was administered by mouth (p.o.) at time 15 min, water (10 ml/kg) was administered s.c. at time 30 min, and the animals were sacrificed at time 45 min. The saline control value represents 0% inhibition and the morphine value represents 100% inhibition. All test compounds had values between saline and morphine, and results are expressed as % inhibition compared to morphine.
The data were subjected to analysis of variance. Also the Scheffe test, a statistical test that allows for multiple comparison, was performed.

[6] = Gates and Montzka 1964; cited from earlier work

C=CCN1CC[C@]23c4c5ccc(OC)c4O[C@H]2C(=O)CC[C@H]3[C@H]1C5 [7,8-dihydro-N-allylnorcodeinone, 17-allyl-4,5α-epoxy-3-methoxymorphinan-6-one]
analgesic properties [1]: weak analgesic properties

C[C@H]1CC(=O)[C@@H]2Oc3c(O)ccc4c3[C@@]23CCN(CC2CCC2)[C@H](C4)[C@H]13.Cl [TR-5088, 17-Cyclobutylmethyl-4,5α-epoxy-3-hydroxy-8β-methylmorphinan-6-one Hydrochloride]
Percent Reversal (S.E.) Of Anti-Peristaltic Effects Of Morphine ([2]; 0.031 mg/kg s.c.): 12.4(±5.8) % | Percent Reversal (S.E.) Of Anti-Peristaltic Effects Of Morphine ([2]; 0.31 mg/kg s.c.): 27.7(±7.3) % | Percent Reversal (S.E.) Of Anti-Peristaltic Effects Of Morphine ([2]; 3.1 mg/kg s.c.): 54.6(±6.7) % | Percent Reversal (S.E.) Of Anti-Peristaltic Effects Of Morphine ([2]; 31.0 mg/kg s.c.): 44.7(±6.2) % | antagonist properties [2]: dramatically increased antagonist properties | ED50 [3]: 1.9 mg/kg | ED50 [4]: 0.67 mg/kg | analgesic activity ([4]; in words): especially effective analgesics | inhibition at 0.01 mg/kg [5]: 13.5% | inhibition at 0.1 mg/kg [5]: 39.8% | inhibition at 1 mg/kg [5]: 50.7% | inhibition at 10 mg/kg [5]: 54% | inhibition at 100 mg/kg [5]: 63.5% | inhibition of peristalsis / constipating side effect ([5]; Hydrochloride): inhibit peristalsis to a statistically significantly less degree than TR-5128 | inhibition of peristalsis / constipating side effect ([5]; listed as 17-cyclobutylmethyl-4,5α-epoxy-3-hydroxy-8β-methylmorphinan-6-one, Hydrochloride): less side effects

O=C1CC[C@H]2[C@H]3Cc4ccc(O)c5c4[C@@]2(CCN3CC2CC2)[C@H]1O5 [TR-5118, 17-cyclopropylmethyl-4,5α-epoxy-3-hydroxymorphinan-6-one]
Percent Reversal (S.E.) Of Anti-Peristaltic Effects Of Morphine ([2]; 3.1 mg/kg s.c.): 56.6(±8.0) % | Percent Reversal (S.E.) Of Anti-Peristaltic Effects Of Morphine ([2]; 31.0 mg/kg s.c.): 69.3(±6.4) % | antagonist properties [2]: mixed agonist side effects and antagonist properties | narcotic antagonist activity [6]: had narcotic antagonist activity | ED50 [3]: 0.19 mg/kg | ED50 [4]: 1.34 mg/kg | inhibition at 0.01 mg/kg [5]: 24.7% | inhibition at 0.1 mg/kg [5]: 25.4% | inhibition at 1 mg/kg [5]: 40.8% | inhibition at 10 mg/kg [5]: 44.8% | inhibition at 100 mg/kg [5]: 47.1% | inhibition of peristalsis / constipating side effect [5]: inhibit peristalsis to a statistically significantly less degree than TR-5128

O=C1CC[C@H]2[C@H]3Cc4ccc(O)c5c4[C@@]2(CCN3CC2CCC2)[C@H]1O5 [TR-5128, 17-Cyclobutylmethyl-4,5α-epoxy-3-hydroxymorphinan-6-one]
Percent Reversal (S.E.) Of Anti-Peristaltic Effects Of Morphine ([2]; 0.01 mg/kg s.c.): 0.0% | Percent Reversal (S.E.) Of Anti-Peristaltic Effects Of Morphine ([2]; 0.10 mg/kg s.c.): 8.3(±4.6) % | Percent Reversal (S.E.) Of Anti-Peristaltic Effects Of Morphine ([2]; 1.0 mg/kg s.c.): 13.5(±7.3) % | Percent Reversal (S.E.) Of Anti-Peristaltic Effects Of Morphine ([2]; 10.0 mg/kg s.c.): 19.1(±5.8) % | Percent Reversal (S.E.) Of Anti-Peristaltic Effects Of Morphine ([2]; 31.0 mg/kg s.c.): 20.4(±5.3) % | antagonist properties [2]: so low an antagonist ability as to be ineffective in the practical sense | ED50 [3]: 1.7 mg/kg | ED50 [4]: 0.07 mg/kg | inhibition at 0.01 mg/kg [5]: 17.5% | inhibition at 0.1 mg/kg [5]: 35.6% | inhibition at 1 mg/kg [5]: 50.7% | inhibition at 10 mg/kg [5]: 76.3% | inhibition at 100 mg/kg [5]: 84.2%
